Results reported in patent publication US8987170B2, “Succinimide compound” (Sumitomo Chemical Company, Limited, priority 2013, dated 2015).

How the values were obtained:
Type in all cases: cell-based
Pythium zingiberis [1] = assay: Antibacterial test on Pythium zingiberis (Test Example 1), mycelium growth on PDA medium; settings: 500 ppm in PDA medium
Experimental: A predetermined amount of Compound (1) was dissolved in dimethyl sulfoxide, and the resulting solution was added to a potato dextrose agar medium (PDA medium) so as to have a final concentration of 500 ppm. Separately, an agar piece containing bacteria cut out from the bacterial flora peripheral part of Pythium zingiberis pre-cultured in an additive-free PDA medium was inoculated on the PDA medium containing Compound (1), and cultured at 12° C. or 27° C., and then the mycelium growth inhibition rate was measured by the following Expression 1: Mycelium growth inhibition rate(%)=100−(Diameter of bacterial flora in added medium)/(Diameter of bacterial flora in additive-free medium)×100 Expression 1

Pythium zingiberis [2] = assay: Antibacterial test on Pythium zingiberis (Test Example 2), comparison with comparative compound; settings: 96 h, 500 ppm in PDA medium, cultured at 27° C. for 4 days, read-out: Mycelium growth inhibition rate (%)
Experimental: A predetermined amount of Compound (1) was dissolved in dimethyl sulfoxide, and the resulting solution was added to a potato dextrose agar medium (PDA medium) so as to have a final concentration of 500 ppm. Separately, an agar piece containing bacteria cut out from the bacterial flora peripheral part of Pythium zingiberis pre-cultured in an additive-free PDA medium was inoculated on the PDA medium containing Compound (1), and cultured at 27° C. for 4 days, and then the mycelium growth inhibition rate was measured by Expression 1. In addition, the test was conducted in the same manner, using N-[7-fluoro-3,4-dihydro-3-oxo-4-(2-propynyl)-2H-1,4-benzoxazin-6-yl]cyclohex-1-ene-1,2-dicarboxamide as a comparative example, in place of Compound (1).

Pythium debaryanum = assay: Antibacterial test on Pythium debaryanum, mycelium growth state on PDA medium; settings: predetermined concentration in PDA medium; cultured at 27° C.
Experimental: A predetermined amount of Compound (1) was dissolved in dimethyl sulfoxide, and the resulting solution was added to a potato dextrose agar medium (PDA medium) so as to have a final concentration of predetermined concentration. Separately, an agar piece containing bacteria cut out from the bacterial flora peripheral part of Pythium debaryanum pre-cultured in an additive-free PDA medium was inoculated on the PDA medium containing Compound (1), and cultured at 27° C., and then the mycelium growth state was observed.

C#CCN1C(=O)COc2cc(F)c(N3C(=O)C4CC=CCC4C3=O)cc21 (stereo not shown) [Compound (1), N-[7-fluoro-3,4-dihydro-3-oxo-4-(2-propynyl)-2H-1,4-benzoxazin-6-yl]cyclohex-4-ene-1,2-dicarboxamide]
inhibition at 500 ppm (Pythium zingiberis [1]; 24 h, culture temperature 27° C., observation Day 1, read-out: Mycelium growth inhibition rate (%)): 53%
inhibition at 500 ppm (Pythium zingiberis [1]; 96 h, culture temperature 12° C., observation Day 4, read-out: Mycelium growth inhibition rate (%)): 100%
inhibition at 500 ppm (Pythium zingiberis [2]): 50%
effect of controlling Pythium debaryanum (mycelium growth state observed) (Pythium debaryanum): has an effect of controlling Pythium debaryanum
